According to publication PMC13050904, “Sensitivity to cuticular hydrocarbons across the odorant receptor family in the Indian jumping ant, Harpegnathos saltator” (Frontiers in Insect Science, 2026):

Assays:
HsOr152 = molecular target: T1, HsOr152 (Harpegnathos saltator, UniProt Z9SO02V7Q0); test: single-sensillum recording of Drosophila ab2A neurons expressing the receptor; assay type: cell-based; details: 20 nmol dosed on heated cartridge; with DmOrco; excitatory; solvent (pentane) response subtracted
T1 construct: V subfamily OR; full-length, UAS-HsOr152 (pUASg.attB, attP40) in D. melanogaster ab2A neurons by Orco-GAL4; complex with endogenous DmOrco (D. melanogaster); with Odorant receptor coreceptor (Drosophila melanogaster)
T1 sequence (Z9SO02V7Q0 1-385): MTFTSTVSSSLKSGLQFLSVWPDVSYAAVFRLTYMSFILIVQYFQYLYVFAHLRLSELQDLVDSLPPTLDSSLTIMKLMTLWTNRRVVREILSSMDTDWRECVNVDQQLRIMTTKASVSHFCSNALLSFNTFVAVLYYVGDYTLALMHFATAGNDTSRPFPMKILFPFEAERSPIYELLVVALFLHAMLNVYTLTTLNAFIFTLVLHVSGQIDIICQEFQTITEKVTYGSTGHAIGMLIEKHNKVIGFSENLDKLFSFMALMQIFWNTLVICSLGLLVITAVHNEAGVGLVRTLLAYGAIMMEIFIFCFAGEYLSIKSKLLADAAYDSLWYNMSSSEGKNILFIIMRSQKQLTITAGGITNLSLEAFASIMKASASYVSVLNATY
T1 sequence (Q9VNB5 1-486 partner): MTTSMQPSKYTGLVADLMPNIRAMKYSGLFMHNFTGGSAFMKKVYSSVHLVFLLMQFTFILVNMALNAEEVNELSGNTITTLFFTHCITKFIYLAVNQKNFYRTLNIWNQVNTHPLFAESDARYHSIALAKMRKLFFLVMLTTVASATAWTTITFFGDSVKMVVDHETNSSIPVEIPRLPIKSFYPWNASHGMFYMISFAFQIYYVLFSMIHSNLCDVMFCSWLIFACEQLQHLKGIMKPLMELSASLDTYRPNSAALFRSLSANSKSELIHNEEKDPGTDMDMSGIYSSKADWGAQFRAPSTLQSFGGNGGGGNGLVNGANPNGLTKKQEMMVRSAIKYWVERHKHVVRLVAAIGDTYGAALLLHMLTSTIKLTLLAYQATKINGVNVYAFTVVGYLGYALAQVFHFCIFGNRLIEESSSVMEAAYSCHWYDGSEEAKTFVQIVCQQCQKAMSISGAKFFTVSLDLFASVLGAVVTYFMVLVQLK

HsOr115 = molecular target: T2, HsOr115 (Harpegnathos saltator, UniProt Z9I713BLV2); test: as above; assay type: cell-based; details: 20 nmol dosed on heated cartridge; with DmOrco; excitatory; solvent (pentane) response subtracted
T2 construct: full-length, UAS-HsOr (pUASg.attB, attP40) in D. melanogaster ab2A neurons by Orco-GAL4; complex with endogenous DmOrco (D. melanogaster); with Odorant receptor coreceptor (Drosophila melanogaster)
T2 sequence (Z9I713BLV2 1-398): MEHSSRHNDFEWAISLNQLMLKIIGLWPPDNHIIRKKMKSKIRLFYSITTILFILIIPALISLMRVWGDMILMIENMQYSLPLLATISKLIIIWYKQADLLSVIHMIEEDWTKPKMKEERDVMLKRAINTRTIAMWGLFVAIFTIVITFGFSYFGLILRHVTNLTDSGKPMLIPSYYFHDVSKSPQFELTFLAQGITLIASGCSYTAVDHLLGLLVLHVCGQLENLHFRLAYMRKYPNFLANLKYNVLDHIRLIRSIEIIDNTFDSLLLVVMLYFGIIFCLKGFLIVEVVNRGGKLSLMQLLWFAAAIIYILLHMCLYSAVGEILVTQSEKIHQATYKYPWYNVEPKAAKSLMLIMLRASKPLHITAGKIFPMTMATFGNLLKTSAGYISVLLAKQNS
T2 sequence (Q9VNB5 1-486 partner): T1 sequence (Q9VNB5 1-486 partner)

Row | mean response (Δspikes/s) at 20 nmol (HsOr152) | response (Δspikes/s) at 20 nmol (HsOr115) | SMILES
1 | 87.5 Δspikes/s |  | CCCCCCCCCCCCCCCCCCCCCCCCCCCC [C28, octacosane]
2 |  | 33.0 Δspikes/s | CCCCCCCCCCCCCCCCCCCCCCCCCCCCCC [C30]
